The values that follow come from patent publication US20220089602A1, “COMPOUNDS THAT INDUCE FERROPTIC CELL DEATH” (The Board of Trustees of the University of Illinois, priority 2019, published 2022).

What is called pIC50 is the negative decadic logarithm of the IC50, by convention in mol/L. High values mean a small IC50, low ones a large IC50.

pIC50: −log10 of the molar value.

Test [1] has as its system non-cancerous breast (MCF10A) cells. The test is described as follows: Cell viability IC50 in non-cancerous cells. Format: cell-based. As to conditions: Homo sapiens, MCF-10A. As for the experimental part:
(§1) To a 384-well plate, 40 μL of 1.25× compound dilution or 1.25% DMSO-containing media was added (final volume of 1% DMSO). Concentrations of compounds tested were 100 μM to 100 nM. On each plate at least 3 technical replicates per compound were performed. Next, 10 μL of a 100,000 cells/mL suspension was added to each well, yielding a final concentration of 1,000 cells/well. To three wells in column 2 was added 1 μL of 10 mM doxorubicin (final concentration of 200 μM) as positive control of cell death. Plates were sealed with gas-permeable seals and incubated at 37° C. for 72 h. At that time, 5 μL of Alamar blue (440 μM resazurin in sterile PBS) was added and plates were incubated for 3-4 hours. Fluorescence was read on a Molecular Devices SpectraMax 3 (excitation=555 nm, emission=585 nm, emission cutoff=570 nm). Wells were normalized to the average of untreated wells (0% cell death). The data were plotted as compound concentration versus percent dead cells and fitted to a logistic-dose response curve using OriginPro 2015 (OriginLab, Northampton, Mass.). The data were generated in triplicate, and IC50 values are reported as the average of three separate experiments along with standard error of the mean.

For test [2], the system named is human skin fibroblast (HFF-1) cells. The test is described as follows: Cell viability IC50 in non-cancerous cells. Format: cell-based. As for the experimental part: as §1
A further test deals with T1, PTGES2 (Homo sapiens, UniProt Q9H7Z7).
T1 construct: endogenous in cells; host or cells: HCT 116 (and ES-2) cells
T1 sequence (Q9H7Z7 whole entry): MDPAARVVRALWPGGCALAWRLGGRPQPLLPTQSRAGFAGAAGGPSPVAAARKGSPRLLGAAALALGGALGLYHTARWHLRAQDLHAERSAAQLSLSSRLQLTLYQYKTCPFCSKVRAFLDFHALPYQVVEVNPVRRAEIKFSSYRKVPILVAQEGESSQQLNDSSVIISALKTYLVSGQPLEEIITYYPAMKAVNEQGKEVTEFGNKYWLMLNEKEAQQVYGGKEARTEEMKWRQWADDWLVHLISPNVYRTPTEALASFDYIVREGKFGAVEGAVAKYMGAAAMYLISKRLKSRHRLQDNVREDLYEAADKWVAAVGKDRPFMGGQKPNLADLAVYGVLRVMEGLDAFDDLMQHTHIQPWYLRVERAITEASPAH
The test is described as follows: Biotin-streptavidin pulldown with P29, competition by ferroptocide, LC/LC-MS/MS. In kind it is binding. The following applies: DMSO/ferroptocide spectral count ratio of P29-labeled enriched proteins. On the procedure: ES-2 and HCT 116 (20×10^6 cells/flask) were plated in T175 flasks and treated with DMSO or 20 µM ferroptocide for 1 hr followed by treatment with 20 μM P29 for 1 hr. Cells were lysed via sonication (6500 g, 4 min) in DPBS and the soluble proteome was isolated after […] (45000 g, 45 min). Bradford assay was used to determine protein concentration. The soluble protein lysates in DPBS (pH 7.4) (500 μL, 2 mg/mL) were treated with biotin-azide (100 μM, 50× stock in DMSO), TCEP (1 mM, 50× fresh stock in water), TBTA ligand (100 μM, 17× stock in DMSO:t-butanol=1:4), and copper(II) sulfate (1 mM, 50× stock in water) followed by incubation at r.t. for 1 hr. Samples were centrifuged (6500 g, 4 min, 4° C.) and the supernatant was discarded. The pellets were resuspended in cold methanol by sonication (2×) and then were solubilized in DPBS containing 1.2% SDS via sonication and heating (90° C., 5 min). A final SDS concentration of 0.2% was achieved after addition of 5 mL of DPBS to the SDS-solubilized proteome samples. The solution was incubated overnight at 4° C. with 100 μL of streptavidin-agarose beads (ThermoFisher, washed 3× with DPBS to remove storage buffer). Samples were rotated at 22° C. for 2 hr before being washed by 5 mL 0.2% SDS/DPBS, 3×5 mL DPBS, and 3×5 mL water. The beads were pelleted by centrifugation (1400×g, 3 min) between washes.
The washed beads were suspended in 500 μL of 6 M urea/DPBS and 10 mM DTT (from 20× stock in water) and heated for 20 min on a 65° C. heat block. Upon addition of iodoacetamide (20 mM from 50× stock in water), samples were allowed to react at 37° C. for 30 min while shaking. Following reduction and alkylation, the beads were pelleted by centrifugation and resuspended in 200 μL of 2 M urea/DPBS, 1 mM CaCl2) (100× stock in water), and sequencing-grade trypsin (2 μg). The bead digestion occurred overnight at 37° C. while shaking. Next day, the beads were pelleted by centrifugation and washed with 2×50 μL water. The washes were combined with the supernatant from the trypsin digestion step, and after addition of formic acid (15 μL) to each sample, they were stored at −20° C. until mass spectrometry analysis.
LC/LC-MS/MS analysis was performed on an LTQ-Orbitrap Discovery mass spectrometer (ThermoFisher) coupled to an Agilent 1200 series HPLC. Peptide digests were pressure loaded onto a 250 m fused silica desalting column packed with 4 cm of Aqua C18 reverse phase resin (Phenomenex). The peptides were eluted onto a biphasic column (100 m fused silica with a 5, tip, packed with 10 cm C18 and 4 cm Partisphere strong cation exchange resin (SCX, Whatman) using a gradient 5-100% Buffer B in Buffer A (Buffer A: 95% water, 5% acetonitrile, 0.1% formic acid; Buffer B: 20% water, 80% acetonitrile, 0.1% formic acid). The peptides were then eluted from the SCX onto the C18 resin and into the mass spectrometer using 4 salt steps previously described (Nat. Protoc. 2, 1414-1425, (2007)). The flow rate through the column was set to ˜0.25 μL/min and the spray voltage was set to 2.75 kV. One full MS scan (FTMS) (400-1800 MW) was followed by 8 data dependent scans (ITMS) of the n^th most intense ions. The tandem MS data were searched using the SEQUEST algorithm using a concatenated target/decoy variant of the human UniProt database. A static modification of +57.02146 on cysteine was specified to account for alkylation by iodoacetamide. MS2 spectra matches were assembled into protein identifications and filtered using DTASelect2.0 to generate a list of protein hits with a peptide false-discovery rate of 5%. The mass spectrometry proteomics data have been deposited to the ProteomeXchange Consortium via the PRIDE [1] partner repository with the dataset identifier PXD012805.

As to `C[C@@H]1CC[C@@]23C[C@H](O)C(=O)[C@@]2(O)[C@]1(C)[C@H](OC(=O)CCl)C[C@@H](C1=CCn2c(=O)n(-c4ccccc4)c(=O)n2C1)[C@@H]3C` [Compound P18, ferroptocide], the pIC50 in test [1] was 5.51; in test [2] it was 5.39. Further, the “Fold Change” value at PTGES2 is 18.
